Laboratory results from patent US9814727B2, “Piperazine phenothiazine derivatives for treating spasticity” (UNIVERSITE D'AIX-MARSEILLE, priority 2014, dated 2017).

What was measured:
[1] = test system: KCC2; test: Western blot of KCC2 in total cell lysate of HEK KCC2 cells; format: cell-based; conditions: 10 μM, 30 min of cell treatment, HEK KCC2 whole cell lysate
Experimental: Wild-type or KCC2-expressing Human Embryonic Kidney (HEK) 293 cells (provided by Prof. Eric Delpire Department of Anesthesiology, Vanderbilt University Medical Center, Nashville, Tenn.) were grown up to 80-90% confluence in DMEM/Ham's F-12 (1:1) (Life technologies, Carlsbad, Calif., USA) supplemented with 10% FBS (Life technologies), 50 units/mL penicillin, and 50 µg/mL streptomycin (Life technologies). KCC2-expressing clones were under puromycin selection (20 μg/ml, Life technologies).
Wild-type and KCC2-expressing HEK293 cells or NSC-34 were harvested and homogenised in lysis buffer (PBS containing 1% Igepal CA-630, 0.1% SDS, 10 mM sodium pyrophosphate, 10 mM NaF, 10 mM NaVO4, 10 mM iodoacetamide and cocktail protease inhibitors and centrifugated at 18000 g for 30 minutes at 4° C. Protein concentration in supernatants was determined using DC protein assay (Bio-rad). Same amounts of total proteins were separated in 6% or 7% SDS PAGE and transferred onto PVDF membrane. Once blocked in Tris Buffer Saline 0.05% Tween 5% non-fat dry milk, membranes were probes over night at 4° C. with KCC2 antibody (1/1000 dilution, Merck-Millipore, Billerica, Mass., USA), or anti-phospho-serine940 KCC2 (1/1000 dilution, PhosphoSolutions) or anti-Actin antibody (1/500 dilution, Sigma Aldrich). […] Signal intensity was measured with the image analysis software Image lab (Bio-Rad, Hercules, Calif., USA). […]

[2] = test system: KCC2; test: Western blot of KCC2 in total cell lysate of NSC-34 KCC2 cells; format: cell-based; conditions: 10 μM, 30 min of cell treatment, NSC-34 KCC2 whole cell lysate
Experimental: NSC-34 wild type and KCC2 were cultured in DMEM (Life technologies, Carlsbad, Calif., USA) supplemented with 10% FBS (Life technologies), 50 units/mL penicillin, and 50 µg/mL streptomycin (Life technologies).
Wild-type and KCC2-expressing HEK293 cells or NSC-34 were harvested and homogenised in lysis buffer (PBS containing 1% Igepal CA-630, 0.1% SDS, 10 mM sodium pyrophosphate, 10 mM NaF, 10 mM NaVO4, 10 mM iodoacetamide and cocktail protease inhibitors and centrifugated at 18000 g for 30 minutes at 4° C. Protein concentration in supernatants was determined using DC protein assay (Bio-rad). Same amounts of total proteins were separated in 6% or 7% SDS PAGE and transferred onto PVDF membrane. Once blocked in Tris Buffer Saline 0.05% Tween 5% non-fat dry milk, membranes were probes over night at 4° C. with KCC2 antibody (1/1000 dilution, Merck-Millipore, Billerica, Mass., USA), or anti-phospho-serine940 KCC2 (1/1000 dilution, PhosphoSolutions) or anti-Actin antibody (1/500 dilution, Sigma Aldrich). Anti-rabbit secondary antibody HRP conjugated was used for detection in chemiluminescent system (Thermo Scientific, Waltham, Mass., USA). Signal intensity was measured with the image analysis software Image lab (Bio-Rad, Hercules, Calif., USA). […]

[3] = test system: reciprocal inhibition of lumbar MNs; test: In vitro extracellular recordings and evaluation of reciprocal inhibition after neonatal spinal cord transection; design: species or system rat
Text: Rats were deeply anesthetized by hypothermia at birth. A dorsal midline skin incision was made over the thoracic vertebra and the overlying fascia and muscles were retracted to expose the dorsal surface of the vertebrae. After a partial laminectomy, the spinal cord was completely transected at the T8 thoracic level with scissors. The lesion cavity was then filled with sterile absorbable local hemostat Surgicoll (Medical Biomaterial Products; Neustadt-Glewe, Germany). The skin incision was closed with sutures (PDSII 6.0, Ethicon; Johnson and Johnson; Brussels, Belgium) and covered by Steri-Strips (3M Health Care; St. Paul, Minn.). The whole surgical procedure took less tan 10 min after anesthesia. Sham-operated rats were treated in the same way except […] the spinal cord transection. Following surgery, the neonates recovered 45 min in a warm environment maintaining the temperature at 35±1° C. Wounds were then cleaned and rats were kept in a warm environment for 40 min before returning to the nest.
Spinal cords isolated from neonatal rats were prepared as described in section 1.2 until “recording”.
Extracellular electrophysiological signals of lumbar VRs and DRs responses were recorded by contact stainless steel electrodes insulated from the bath with vaseline. […]

[4] = test system: paw withdrawal threshold; test: Von Frey test following spinal cord injury (mechanical hyperalgesia); format: in vivo, rat; conditions: for effect on mechanical hyperalgesia (paw withdrawal threshold): 21 days after injury
Experimental: Thoracic spinal unilateral hemisection in rats was used as a model of SCI. Adult female Wistar Rats (Charles River) were anaesthetized intraperitoneally with 50 mg/kg ketamine (Imalgen®, Merial, Duluth, Ga., USA) and 0.25 mg/kg Medetomidine (Domitor®, Janssen Pharmaceutica, Beerse, Belgium). The antibiotic Amoxycyline (Duphamox LA®, Pfizer, 150 mg/kg) was injected subcutaneously before the surgery. The skin was cut longitudinally over T8-T10 vertebra and a local anesthetic (2% Procaine hydrochloride, Pharmy H, Saint-Germain-en-Laye, France) was injected intramuscularly before cuting the paravertebral muscles. A laminectomy was performed at vertebral segment T9. The spinal cord was hemisected on the left side with microscissors at the level of the T8 spinal segment. Finally, paravertebral muscles and skin were sutured and rats were treated with buprenorphine for analgesia (1 injection before awakening from anaesthesia and 2 more injections over the next 24 h period). Aspirin was diluted in their water bottles for 3 days (aspegic, 200 mg in 150 ml). The rats weight, temperature and water intake were checked and their bladder was emptied manually twice a day until recovery of autonomy.
At day 21 post lesion, the rats were tested once with Von Frey hair and plantar test in order to have their baseline values. […] Then the effects of the drug was measured alternatively on mechanical and thermal hyperalgesia every 15 min, that is at […] after injection, respectively.
The plantar surface of the left, then right hind paws were probed using von Frey monofilaments £Bioseb, Paris, France) which apply different calibrated forces when they bent. The test started by applying a Von Frey hair of 8 g for 3 sec, and the 50% withdrawal thresholds of each hindlimb in response to tactile stimulation were measured using the up and down method (Chaplan et al., 1994).

CN1CCN(CCCN2c3ccccc3Sc3ccc(Cl)cc32)CC1 [compound 2, 2-chloro-10-[3-(4-methyl-1-piperazinyl)propyl]-10H-phenothiazine]
phosphorylated KCC2 on serine 940 [1]: increased | total KCC2 protein level (monomers+oligomers) [1]: increased | phosphorylated KCC2 on serine 940 [2]: increased | total KCC2 protein level (monomers+oligomers) [2]: increased | strength of reciprocal inhibition relative to intact spinal cord ([3]; 200 μM (so in the source), n=6): inhibition comparable to an intact spinal cord | strength of reciprocal inhibition ([3]; 5, 10 and 20 μM, 20 min after onset of application, P5-7 rats transected at birth): increased the strength of reciprocal inhibition in a dose-dependent manner | time after injection at which effects were significant ([4]; i.p. or i.v., Von Frey test): 40 min | effect on mechanical hyperalgesia (paw withdrawal threshold) ([4]; intraperitoneally 2 mg/kg): temporarily reduces mechanical hyperalgesia | effect on mechanical hyperalgesia (paw withdrawal threshold) ([4]; intravenously 50 ng/kg): temporarily reduces mechanical hyperalgesia
